Results: patent US20260317314A1, “NITROGEN-CONTAINING HETEROCYCLIC COMPOUND AND USE THEREOF” (JIANGSU DEYUAN PHARMACEUTICAL CO.,LTD., priority 2023, published 2026)
pIC50: −log10 of the molar value.

Assays:
[1] = Permeability test in MDR1-MDCKII monolayer cell model; type: in vitro ADME; settings: dog
Method: Experimental objective: The permeability and efflux ratio of the compound of the present disclosure were determined using the MDR1-MDCKII monolayer cell model to assess its membrane permeability and potential for P-gp-mediated efflux transport.
Experimental protocol: MDR1-MDCKII cells (obtained from the Netherlands Cancer Institute) were seeded in 96-well plates (obtained from Corning) at a cell density of 3.33×10^5 cells/mL and cultured for 4 to 7 days to form confluent cell monolayers. Hank's balanced salt solution containing 10 mM HEPES (pH 7.40) was used as the transport buffer. The test compound was evaluated for bidirectional transport at a concentration of 2 μM, with the DMSO concentration in the incubation system maintained below 1%. After adding the samples, the cell plate was incubated at 37±1° C., 5% CO2, and saturated humidity for 2.5 hours. All samples were quantitatively analyzed using the LC-MS/MS method. The apparent permeability coefficient (Papp, cm/s) and efflux ratio (ER) were calculated using the following formula. Apparent permeability coefficient (Papp, cm/s) was calculated using the following formula: Papp=(dCr/dt)×Vr/(A×C0). Herein, dCr/dt represents the cumulative concentration of the compound at the receiving end per unit time (μM/s); Vr is the volume of the solution at the receiving end (with solution volumes at the apical and basolateral ends being 0.075 mL and 0.250 mL, respectively); A is the relative surface area of the cell monolayer (0.143 cm^2); C0 is the initial concentration of the test substance at the dosing end (μM) or the peak area ratio of the reference substance. The efflux ratio was calculated using the following formula: ER=Papp(BA)/Papp(AB).

[2] = In vitro liver microsome metabolic stability study; type: in vitro ADME; settings: human liver microsomes 0.5 mg/mL, compound 1 μM, 37° C., up to 60 minutes; read-out: Intrinsic hepatic clearance CLint(liver)
Method: Stock solution: 10 mM in DMSO.
Only 54 μL of microsomal working solution, 6 μL of NADPH regeneration system working solution, and 180 μL of stop solution were added to the blank plate.
LC-MS/MS analysis was performed.

[3] = Plasma protein binding rate test, SD rat (equilibrium dialysis); type: in vitro ADME; settings: 37° C., read-out: Plasma protein binding rate (%) in SD rats (converted)
Source text: (§1) The sample was thoroughly mixed.

[4] = Plasma protein binding rate test, cynomolgus monkey (equilibrium dialysis); type: in vitro ADME; settings: 37° C., read-out: Plasma protein binding rate (%) in cynomolgus monkeys (converted)
Source text: as §1

[5] = Plasma protein binding rate test, human (equilibrium dialysis); type: in vitro ADME; settings: 37° C.
Source text: as §1

CYP1A2 = target: T1, CYP1A2 (Homo sapiens, UniProt P05177); assay: Human liver microsome CYP inhibition assay, CYP1A2; type: in vitro ADME; settings: role: inhibitor; human liver microsomes, probe substrate; read-out: CYP1A2 half maximal inhibitory concentration IC50
T1 construct: Mixed human liver microsomes (HLM) were purchased from Corning Inc; tissue Corning Inc; host or cells: mixed human liver microsomes (HLM)
T1 sequence (P05177 1-516): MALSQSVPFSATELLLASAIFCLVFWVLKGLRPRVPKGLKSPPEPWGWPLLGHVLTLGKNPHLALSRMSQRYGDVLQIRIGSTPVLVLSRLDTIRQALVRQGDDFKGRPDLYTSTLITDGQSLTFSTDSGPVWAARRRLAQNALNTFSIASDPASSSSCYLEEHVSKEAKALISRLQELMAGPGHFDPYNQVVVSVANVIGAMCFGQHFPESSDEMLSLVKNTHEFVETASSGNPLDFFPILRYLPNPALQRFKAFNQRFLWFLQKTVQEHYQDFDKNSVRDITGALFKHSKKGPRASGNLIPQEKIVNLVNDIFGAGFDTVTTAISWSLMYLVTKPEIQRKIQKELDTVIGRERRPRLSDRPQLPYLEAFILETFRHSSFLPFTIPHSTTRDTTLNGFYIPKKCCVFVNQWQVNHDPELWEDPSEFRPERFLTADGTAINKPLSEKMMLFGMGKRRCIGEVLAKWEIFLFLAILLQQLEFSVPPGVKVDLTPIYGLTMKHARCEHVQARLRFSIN
Method: (§2) Experimental objective: To evaluate the inhibitory activity of the test substance on human liver microsomal cytochrome P450 isoenzymes (CYP1A2, CYP2C9, CYP2C19, CYP2D6, CYP3A4) using a 5-in-1 probe substrate for CYP isoenzymes.
(§3) Mixed human liver microsomes (HLM) were purchased from Corning Inc. (Steuben, New York, USA) and stored at temperatures below −70° C. prior to use.
(§4) The working solution of the test substance, which had been diluted to a series of concentrations, was added to an incubation system containing human liver microsomes, probe substrates, and auxiliary factors of the circulatory system. A control containing solvent but no test substance served as an enzyme activity control (100%). The concentration of metabolites produced from probe substrates in the samples was determined using Liquid Chromatography-Tandem Mass Spectrometry (LC-MS/MS) method. Non-linear regression analysis of the average percentage activity of the test substance against its concentration was conducted using SigmaPlot (V.11). The IC50 values were calculated using a three-parameter or four-parameter inverse log equation.

CYP2C9 = target: T2, CYP2C9 (Homo sapiens, UniProt P11712); assay: Human liver microsome CYP inhibition assay, CYP2C9; type: in vitro ADME; settings: role: inhibitor; human liver microsomes, probe substrate; read-out: CYP2C9 half maximal inhibitory concentration IC50
T2 construct: Mixed human liver microsomes (HLM) were purchased from Corning Inc; tissue Corning Inc; host or cells: mixed human liver microsomes (HLM)
Method: as §2, §3, §4

CYP2C19 = target: T3, CYP2C19 (Homo sapiens, UniProt P33261); assay: Human liver microsome CYP inhibition assay, CYP2C19; type: in vitro ADME; settings: role: inhibitor; human liver microsomes, probe substrate; read-out: CYP2C19 half maximal inhibitory concentration IC50
T3 construct: Mixed human liver microsomes (HLM) were purchased from Corning Inc; tissue Corning Inc; host or cells: mixed human liver microsomes (HLM)
Method: as §2, §3, §4

CYP2D6 = target: T4, CYP2D6 (Homo sapiens, UniProt P10635); assay: Human liver microsome CYP inhibition assay, CYP2D6; type: in vitro ADME; settings: role: inhibitor; human liver microsomes, probe substrate; read-out: CYP2D6 half maximal inhibitory concentration IC50
T4 construct: Mixed human liver microsomes (HLM) were purchased from Corning Inc; tissue Corning Inc; host or cells: mixed human liver microsomes (HLM)
Method: as §2, §3, §4

CYP3A4 = target: T5, CYP3A4 (Homo sapiens, UniProt P08684); assay: Human liver microsome CYP inhibition assay, CYP3A4; type: in vitro ADME; settings: role: inhibitor; human liver microsomes, probe substrate; read-out: CYP3A4 half maximal inhibitory concentration IC50
T5 construct: Mixed human liver microsomes (HLM) were purchased from Corning Inc; tissue Corning Inc; host or cells: mixed human liver microsomes (HLM)
Method: as §2, §3, §4

human CYP11B2 = target: T6, human CYP11B2 (Homo sapiens, UniProt P19099); assay: In vitro activity assay of monoclonal cells overexpressing human CYP11B2; type: cell-based; settings: G402 cells overexpressing human CYP11B2; substrate 11-deoxycorticosterone; 16 hours; aldosterone by LCMS/MS
T6 construct: expressed in transfected cells; host or cells: human renal leiomyoma G402 cell line (monoclonal cells overexpressing human CYP11B2)
T6 sequence (P19099 25-503): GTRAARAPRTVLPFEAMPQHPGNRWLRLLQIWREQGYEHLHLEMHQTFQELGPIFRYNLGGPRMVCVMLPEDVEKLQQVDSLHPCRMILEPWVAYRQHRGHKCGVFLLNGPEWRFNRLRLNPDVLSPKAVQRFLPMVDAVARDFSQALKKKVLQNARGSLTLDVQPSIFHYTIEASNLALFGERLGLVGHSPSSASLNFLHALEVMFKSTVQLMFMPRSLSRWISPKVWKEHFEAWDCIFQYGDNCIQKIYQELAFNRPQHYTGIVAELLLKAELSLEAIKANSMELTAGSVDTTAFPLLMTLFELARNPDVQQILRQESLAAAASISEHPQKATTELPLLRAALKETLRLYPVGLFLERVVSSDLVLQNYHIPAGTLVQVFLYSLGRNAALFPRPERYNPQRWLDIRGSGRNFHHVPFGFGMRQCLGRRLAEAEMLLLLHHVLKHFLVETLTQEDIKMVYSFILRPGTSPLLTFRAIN
Method: The human renal leiomyoma G402 cell line overexpressing human CYP11B2 was selected to serve as a compound activity screening system.
• 2) Compound details: The test compound was prepared as a 10 μM working concentration using DMSO.
Day 1: Cells were digested, and human renal leiomyoma G402 cells overexpressing human CYP11B2 were resuspended to 1×10^5 cells/mL, with 100 μL seeded into a 96-well plate.
Day 2: The medium was replaced with DMEM/F12 containing 2.5% charcoal-stripped fetal bovine serum; test compounds were added: 5 μL of test compound was added to the cell culture medium to achieve final concentrations of 10000, 2500, 625, 156.25, 39.06, 9.77, 2.44, 0.61, 0.15, and 0 nM (with a DMSO content of 0.1%).
After one hour, the substrate was added: 30 mM 11-deoxycorticosterone was diluted 1500-fold with culture medium, and 5 μL was dispensed per well to achieve a final concentration of […], followed by incubation for 16 hours.
(§5) Day 3: The cell supernatant was collected and added to 200 μL of a methanol solution containing internal standards (internal standards: 35 ng/mL ketoprofen or 7.5 ng/mL carbamazepine or 5 ng/mL diphenhydramine or 10 ng/mL tolbutamide). The mixture was vortexed and centrifuged (4000×g, 4° C., 5 minutes). Then, 100 μL of the supernatant was taken and mixed with 100 μL of pure water. The mixture was centrifuged (4000 g, 4° C., 15 min), and the supernatant was analyzed by ESI-LCMS/MS. • 4) Data analysis:
Ratio=Aldosterone peak area/Internal standard peak area
Control activity %=(Ratio test compound/Ratio DMSO)×100%
“Ratio test compound” represents the Ratio values at different concentrations of the test compound.
“Ratio DMSO” represents the Ratio value without the addition of the test compound. • X=Log (compound concentration) • Y=Control activity %
(§6) The IC50 of the test compound was determined by fitting to a nonlinear regression equation using XLfit 5.5.0.

human CYP11B1 = target: T7, human CYP11B1 (Homo sapiens, UniProt P15538); assay: In vitro activity assay of monoclonal cells overexpressing human CYP11B1; type: cell-based; settings: G402 cells overexpressing human CYP11B1; substrate 11-deoxycortisol 1 μM; 16 hours
T7 construct: expressed in transfected cells; host or cells: human renal leiomyoma G402 cell line (monoclonal cells overexpressing human CYP11B1)
T7 sequence (P15538 25-503): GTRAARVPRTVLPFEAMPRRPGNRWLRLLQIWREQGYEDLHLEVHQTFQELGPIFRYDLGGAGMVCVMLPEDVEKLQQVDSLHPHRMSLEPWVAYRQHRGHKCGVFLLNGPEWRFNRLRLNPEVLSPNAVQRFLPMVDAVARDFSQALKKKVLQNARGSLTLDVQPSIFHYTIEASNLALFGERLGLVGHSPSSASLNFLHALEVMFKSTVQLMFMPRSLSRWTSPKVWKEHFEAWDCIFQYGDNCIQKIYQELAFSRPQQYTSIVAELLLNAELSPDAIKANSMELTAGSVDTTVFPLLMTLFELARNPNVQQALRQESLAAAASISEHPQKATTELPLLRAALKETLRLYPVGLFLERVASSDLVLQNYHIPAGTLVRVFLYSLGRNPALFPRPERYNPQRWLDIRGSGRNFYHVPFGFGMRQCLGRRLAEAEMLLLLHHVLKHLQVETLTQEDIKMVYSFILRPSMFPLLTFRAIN
Method: The human renal leiomyoma G402 cell line overexpressing human CYP11B1 was selected to serve as a compound selectivity screening system. Details are as follows: • 1) The cells, reagents, and instrument information were consistent with Experimental Example 1 (activity of monoclonal cells overexpressing human CYP11B2). • 2) Compound details: The test compound was prepared as a […] working concentration using DMSO. • 3) Experimental procedure
Day 1: Cells were digested, and human renal leiomyoma G402 cells overexpressing CYP11B1 were resuspended to 1×10^5 cells/mL, with […] seeded into a 96-well plate.
Day 2: The medium was replaced with DMEM/F12 containing 2.5% charcoal-stripped fetal bovine serum.
After one hour, the substrate was added: 30 mM 11-deoxycortisol was diluted 1500-fold with culture medium, and 5 μL was dispensed per well to achieve a final concentration of 1 μM, followed by incubation for 16 hours.
as §5, with “The mixture was vortexed and centrifuged (4000×g, 4° C., 5 minutes). Then, 100 μL of the supernatant was taken and mixed with 100 μL of pure water.” left out, “analysis: […]” for “analysis:”
as §6

T4 sequence (P10635 whole entry): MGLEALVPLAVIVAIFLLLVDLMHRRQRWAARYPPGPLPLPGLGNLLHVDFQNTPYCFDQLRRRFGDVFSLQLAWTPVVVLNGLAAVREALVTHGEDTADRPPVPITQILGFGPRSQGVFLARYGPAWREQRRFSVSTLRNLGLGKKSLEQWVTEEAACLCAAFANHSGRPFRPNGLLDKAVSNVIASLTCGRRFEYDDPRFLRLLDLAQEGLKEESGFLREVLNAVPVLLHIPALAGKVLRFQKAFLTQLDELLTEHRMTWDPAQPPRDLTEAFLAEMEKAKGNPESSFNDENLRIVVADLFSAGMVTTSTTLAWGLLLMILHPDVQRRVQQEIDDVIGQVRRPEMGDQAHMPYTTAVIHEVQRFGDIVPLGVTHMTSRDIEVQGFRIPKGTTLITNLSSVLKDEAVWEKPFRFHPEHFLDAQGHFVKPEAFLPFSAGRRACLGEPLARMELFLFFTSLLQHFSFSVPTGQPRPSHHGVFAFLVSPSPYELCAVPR
T2 sequence (P11712 whole entry): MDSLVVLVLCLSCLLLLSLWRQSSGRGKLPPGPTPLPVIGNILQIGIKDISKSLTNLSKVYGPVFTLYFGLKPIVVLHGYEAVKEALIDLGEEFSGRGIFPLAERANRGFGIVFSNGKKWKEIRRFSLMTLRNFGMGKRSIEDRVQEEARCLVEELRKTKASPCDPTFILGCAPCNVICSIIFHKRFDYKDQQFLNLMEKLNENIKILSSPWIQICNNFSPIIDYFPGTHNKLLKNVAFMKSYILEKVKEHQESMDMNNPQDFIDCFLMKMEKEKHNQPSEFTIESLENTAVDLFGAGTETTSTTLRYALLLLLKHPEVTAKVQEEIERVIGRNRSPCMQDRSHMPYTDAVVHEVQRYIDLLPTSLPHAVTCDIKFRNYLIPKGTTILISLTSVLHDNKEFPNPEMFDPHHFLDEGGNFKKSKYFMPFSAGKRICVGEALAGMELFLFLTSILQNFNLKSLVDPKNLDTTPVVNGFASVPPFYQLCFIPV
T5 sequence (P08684 whole entry): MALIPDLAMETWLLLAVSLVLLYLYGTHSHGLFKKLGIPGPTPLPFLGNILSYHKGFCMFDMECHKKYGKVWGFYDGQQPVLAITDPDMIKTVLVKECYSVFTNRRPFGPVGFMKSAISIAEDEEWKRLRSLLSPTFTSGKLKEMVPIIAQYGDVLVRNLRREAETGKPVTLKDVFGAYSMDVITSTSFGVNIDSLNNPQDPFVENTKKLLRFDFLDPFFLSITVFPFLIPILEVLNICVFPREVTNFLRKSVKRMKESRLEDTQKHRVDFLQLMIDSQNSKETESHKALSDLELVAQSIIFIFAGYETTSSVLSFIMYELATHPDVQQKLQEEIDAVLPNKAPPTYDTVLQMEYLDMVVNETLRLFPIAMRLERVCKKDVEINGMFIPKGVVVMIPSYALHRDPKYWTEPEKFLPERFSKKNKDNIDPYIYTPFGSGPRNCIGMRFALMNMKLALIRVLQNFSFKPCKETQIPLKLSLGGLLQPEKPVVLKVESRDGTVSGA
T3 sequence (P33261 whole entry): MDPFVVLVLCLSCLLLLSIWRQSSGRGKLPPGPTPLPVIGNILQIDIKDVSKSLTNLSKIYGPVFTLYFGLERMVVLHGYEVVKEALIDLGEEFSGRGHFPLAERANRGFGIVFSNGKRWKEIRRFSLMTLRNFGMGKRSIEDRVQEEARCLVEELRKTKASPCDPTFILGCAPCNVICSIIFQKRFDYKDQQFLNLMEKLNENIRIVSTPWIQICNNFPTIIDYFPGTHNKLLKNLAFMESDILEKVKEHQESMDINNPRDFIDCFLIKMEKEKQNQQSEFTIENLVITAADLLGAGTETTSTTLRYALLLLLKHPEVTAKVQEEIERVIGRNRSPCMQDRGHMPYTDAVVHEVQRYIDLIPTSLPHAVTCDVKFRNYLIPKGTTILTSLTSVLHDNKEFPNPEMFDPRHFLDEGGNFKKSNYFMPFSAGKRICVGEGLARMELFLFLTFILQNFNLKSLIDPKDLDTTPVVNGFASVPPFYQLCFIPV

efflux ratio at 2.5 h, 2 µM ([1]; MDCK-MDR1, pH 7.4, ER=Papp(BA)/Papp(AB))	Papp A→B at 2.5 h, 2 µM ([1]; MDCK-MDR1, pH 7.4, pH 7.40, 2.5 hours, 37±1° C., read-out: Apparent permeability coefficient (Papp (AB))) [×10⁻⁶ cm/s]	CLint scaled at 1 µM [2] [mL/min/kg]	fraction unbound at 4 h [3]	fraction unbound at 4 h [4]	fraction unbound at 4 h [5]	pIC50 (CYP1A2)	pIC50 (CYP2C9)	pIC50 (CYP2C19)	pIC50 (CYP2D6)	pIC50 (CYP3A4)	pIC50 (human CYP11B2)	pIC50 (human CYP11B1)	SMILES
0.89	24.3	< 8.6	0.139	0.245	0.245	< 4.30	< 4.30	< 4.30	< 4.30	< 4.30	–	–	CCC(=O)NC1CCCc2c(-c3ccc4c(c3)OCC(=O)N4C)cncc21 (single isomer, unassigned) [Compound 011]
–	–	–	–	–	–	–	–	–	–	–	7.31	5.16	CCC(=O)N[C@@H]1CCCc2c(-c3cnc4c(ccc(=O)n4C)c3)cncc21 (single isomer, unassigned) [Compound 022]
